Assays:
Experiment in all cases: Test B pre-/postemergence plant response
Assay type in all cases: in vivo
Conditions in all cases: Postemergence
[1] = test system: Italian ryegrass (Lolium multiflorum)
In short: (§1)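 Response scores were assigned visually after 13 to 15 days in a greenhouse, comparing treated pots with controls on a 0–100 scale where 100 denotes complete control. Preemergence treatments went onto freshly seeded loam/sand soil; postemergence treatments onto plants 2 to 18 cm tall.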

[2] = test system: bermudagrass (Cynodon dactylon)
In short: as §1

corn (Zea mays) = test system: corn (Zea mays)
In short: as §1

[3] = test system: downy bromegrass (Bromus tectorum)
In short: as §1

[4] = test system: giant foxtail (Setaria faberii)
In short: as §1

[5] = test system: goosegrass (Eleusine indica)
In short: as §1

[6] = test system: green foxtail (Setaria viridis)
In short: as §1

[7] = test system: johnsongrass (Sorghum halepense)
In short: as §1

[8] = test system: large crabgrass (Digitaria sanguinalis)
In short: as §1

[9] = test system: morningglory (Ipomoea coccinea)
In short: as §1

[10] = test system: ragweed (common ragweed, Ambrosia elatior)
In short: as §1

[11] = test system: woolly cupgrass (Eriochloa villosa)
In short: as §1

[12] = test system: yellow nutsedge (Cyperus esculentus)
In short: as §1

In the case of `COc1ccc(-n2c(-c3ccccc3)ncc(C(=O)C3=C(O)CCCC3=O)c2=O)cc1` [Compound 4, 5-[(2-hydroxy-6-oxo-cyclohexen-1-yl)carbonyl]-3-(4-methoxyphenyl)-2-phenyl-4(3H)-pyrimidinone], the pest or weed control at 31 g/ha ([1]; Lolium multiflorum, post-emergence, 31 g ai/ha, scale 0 to 100 (0 no effect, 100 complete control), read-out: Plant response rating, Ryegrass, Italian) was 10%, the pest or weed control at 62 g/ha ([1]; Lolium multiflorum, post-emergence, 62 g ai/ha, scale 0 (no effect) to 100 (complete control), 13 to 15 days, read-out: Plant response rating, Ryegrass, Italian) was 10% and the pest or weed control at 125 g/ha ([1]; Lolium multiflorum, post-emergence, 125 g ai/ha, visual rating after 13 to 15 days, scale 0 (no effect) to 100 (complete control)) was 15%. The “Ryegrass, Italian plant response rating” value ([1]; 250 g ai/ha, scale 0 to 100) was 20, the pest or weed control at 31 g/ha ([2]; Cynodon dactylon, post-emergence, 31 g ai/ha, scale 0 to 100 (0 no effect, 100 complete control), read-out: Plant response rating, Bermudagrass) was 15% and the pest or weed control at 62 g/ha ([2]; Cynodon dactylon, post-emergence, 62 g ai/ha, scale 0 (no effect) to 100 (complete control), 13 to 15 days, read-out: Plant response rating, Bermudagrass) was 85%. The pest or weed control at 125 g/ha ([2]; Cynodon dactylon, post-emergence, 125 g ai/ha, scale 0 to 100 (0 no effect, 100 complete control), 13 to 15 days, read-out: Plant response rating, Bermudagrass) was 85%, the “Bermudagrass plant response rating” value ([2]; 250 g ai/ha, scale 0 to 100) was 100 and the “Corn plant response rating” value (corn (Zea mays); 250 g ai/ha, scale 0 to 100) was 85. It also gave a Corn plant response rating (crop injury, 0 = no effect, 100 = complete kill) at 31 g/ha (corn (Zea mays); Zea mays, post-emergence, 31 g ai/ha, scale 0 to 100 (0 no effect, 100 complete control)) of 10%, a Corn plant response rating (crop injury, 0 = no effect, 100 = complete kill) at 62 g/ha (corn (Zea mays); Zea mays, post-emergence, 62 g ai/ha, scale 0 (no effect) to 100 (complete control), 13 to 15 days) of 25% and a Corn plant response rating (crop injury, 0 = no effect, 100 = complete kill) at 125 g/ha (corn (Zea mays); Zea mays, post-emergence, 125 g ai/ha, visual rating after 13 to 15 days, scale 0 (no effect) to 100 (complete control)) of 50%. The pest or weed control at 31 g/ha ([3]; Bromus tectorum, post-emergence, 31 g ai/ha, scale 0 to 100 (0 no effect, 100 complete control), read-out: Plant response rating, Bromegrass, Downy) was 10%, the pest or weed control at 62 g/ha ([3]; Bromus tectorum, post-emergence, 62 g ai/ha, scale 0 (no effect) to 100 (complete control), 13 to 15 days, read-out: Plant response rating, Bromegrass, Downy) was 15% and the pest or weed control at 125 g/ha ([3]; Bromus tectorum, post-emergence, 125 g ai/ha, visual rating after 13 to 15 days, scale 0 (no effect) to 100 (complete control)) was 50%. The “Bromegrass, Downy plant response rating” value ([3]; 250 g ai/ha, scale 0 to 100) was 55, the “Foxtail, Giant plant response rating” value ([4]; 250 g ai/ha, scale 0 to 100) was 100 and the pest or weed control at 31 g/ha ([4]; Setaria faberi, post-emergence, 31 g ai/ha, scale 0 to 100 (0 no effect, 100 complete control), read-out: Plant response rating, Foxtail, Giant) was 80%. For the same compound, the pest or weed control at 62 g/ha ([4]; Setaria faberi, post-emergence, 62 g ai/ha, scale 0 (no effect) to 100 (complete control), 13 to 15 days, read-out: Plant response rating, Foxtail, Giant) was 98%, the pest or weed control at 125 g/ha ([4]; Setaria faberi, post-emergence, 125 g ai/ha, visual rating after 13 to 15 days, scale 0 (no effect) to 100 (complete control)) was 98% and the pest or weed control at 31 g/ha ([5]; Eleusine indica, post-emergence, 31 g ai/ha, scale 0 to 100 (0 no effect, 100 complete control), read-out: Plant response rating, Goosegrass) was 25%. For the same compound, the pest or weed control at 62 g/ha ([5]; Eleusine indica, post-emergence, 62 g ai/ha, scale 0 (no effect) to 100 (complete control), 13 to 15 days, read-out: Plant response rating, Goosegrass) was 75%, the pest or weed control at 125 g/ha ([5]; Eleusine indica, post-emergence, 125 g ai/ha, visual rating after 13 to 15 days, scale 0 (no effect) to 100 (complete control)) was 85% and the “Goosegrass plant response rating” value ([5]; 250 g ai/ha, scale 0 to 100) was 98. The “Foxtail, Green plant response rating” value ([6]; 250 g ai/ha, scale 0 to 100) was 60, the pest or weed control at 31 g/ha ([6]; Setaria viridis, post-emergence, 31 g ai/ha, scale 0 to 100 (0 no effect, 100 complete control), read-out: Plant response rating, Foxtail, Green) was 40% and the pest or weed control at 62 g/ha ([6]; Setaria viridis, post-emergence, 62 g ai/ha, scale 0 (no effect) to 100 (complete control), 13 to 15 days, read-out: Plant response rating, Foxtail, Green) was 40%. The pest or weed control at 125 g/ha ([6]; Setaria viridis, post-emergence, 125 g ai/ha, visual rating after 13 to 15 days, scale 0 (no effect) to 100 (complete control)) was 60%, the “Johnsongrass plant response rating” value ([7]; 250 g ai/ha, scale 0 to 100) was 98 and the pest or weed control at 31 g/ha ([7]; Sorghum halepense, post-emergence, 31 g ai/ha, scale 0 to 100 (0 no effect, 100 complete control), read-out: Plant response rating, Johnsongrass) was 45%. It also gave a pest or weed control at 62 g/ha ([7]; Sorghum halepense, post-emergence, 62 g ai/ha, scale 0 (no effect) to 100 (complete control), 13 to 15 days, read-out: Plant response rating, Johnsongrass) of 80%, a pest or weed control at 125 g/ha ([7]; Sorghum halepense, post-emergence, 125 g ai/ha, visual rating after 13 to 15 days, scale 0 (no effect) to 100 (complete control)) of 95% and a pest or weed control at 31 g/ha ([8]; Digitaria sanguinalis, post-emergence, 31 g ai/ha, scale 0 to 100 (0 no effect, 100 complete control), read-out: Plant response rating, Crabgrass, Large) of 70%. The pest or weed control at 62 g/ha ([8]; Digitaria sanguinalis, post-emergence, 62 g ai/ha, scale 0 (no effect) to 100 (complete control), 13 to 15 days, read-out: Plant response rating, Crabgrass, Large) was 85%, the pest or weed control at 125 g/ha ([8]; Digitaria sanguinalis, post-emergence, 125 g ai/ha, visual rating after 13 to 15 days, scale 0 (no effect) to 100 (complete control)) was 100% and the “Crabgrass, Large plant response rating” value ([8]; 250 g ai/ha, scale 0 to 100) was 100. It also gave a pest or weed control at 31 g/ha ([9]; Ipomoea, post-emergence, 31 g ai/ha, scale 0 to 100 (0 no effect, 100 complete control), read-out: Plant response rating, Morningglory) of 60%, a pest or weed control at 62 g/ha ([9]; Ipomoea, post-emergence, 62 g ai/ha, scale 0 (no effect) to 100 (complete control), 13 to 15 days, read-out: Plant response rating, Morningglory) of 85% and a pest or weed control at 125 g/ha ([9]; Ipomoea, post-emergence, 125 g ai/ha, visual rating after 13 to 15 days, scale 0 (no effect) to 100 (complete control)) of 90%. For the same compound, the “Morningglory plant response rating” value ([9]; 250 g ai/ha, scale 0 to 100) was 95, the pest or weed control at 31 g/ha ([10]; Ambrosia artemisiifolia, post-emergence, 360 h, 31 g ai/ha, scale 0 to 100 (0 no effect, 100 complete control), read-out: Plant response rating, Ragweed) was 100% and the pest or weed control at 62 g/ha ([10]; Ambrosia artemisiifolia, post-emergence, 360 h, 62 g ai/ha, scale 0 (no effect) to 100 (complete control), 13 to 15 days, read-out: Plant response rating, Ragweed) was 100%. For the same compound, the pest or weed control at 125 g/ha ([10]; Ambrosia artemisiifolia, post-emergence, 360 h, 125 g ai/ha, visual rating after 13 to 15 days, scale 0 (no effect) to 100 (complete control)) was 100%, the “Ragweed plant response rating” value ([10]; 250 g ai/ha, scale 0 to 100) was 100 and the pest or weed control at 31 g/ha ([11]; Eriochloa villosa, post-emergence, 31 g ai/ha, scale 0 to 100 (0 no effect, 100 complete control), read-out: Plant response rating, Cupgrass, Woolly) was 75%. The pest or weed control at 62 g/ha ([11]; Eriochloa villosa, post-emergence, 62 g ai/ha, scale 0 (no effect) to 100 (complete control), 13 to 15 days, read-out: Plant response rating, Cupgrass, Woolly) was 95%, the pest or weed control at 125 g/ha ([11]; Eriochloa villosa, post-emergence, 125 g ai/ha, visual rating after 13 to 15 days, scale 0 (no effect) to 100 (complete control)) was 100% and the “Cupgrass, Woolly plant response rating” value ([11]; 250 g ai/ha, scale 0 to 100) was 100. For the same compound, the pest or weed control at 31 g/ha ([12]; Cyperus, post-emergence, 31 g ai/ha, scale 0 to 100 (0 no effect, 100 complete control), read-out: Plant response rating, Nutsedge, Yellow) was 55%, the pest or weed control at 62 g/ha ([12]; Cyperus, post-emergence, 62 g ai/ha, scale 0 (no effect) to 100 (complete control), 13 to 15 days, read-out: Plant response rating, Nutsedge, Yellow) was 65% and the pest or weed control at 125 g/ha ([12]; Cyperus, post-emergence, 125 g ai/ha, visual rating after 13 to 15 days, scale 0 (no effect) to 100 (complete control)) was 75%. For the same compound, the “Nutsedge, Yellow plant response rating” value ([12]; 250 g ai/ha, scale 0 to 100) was 80.
